# According to paper PMC3132048, “Treatment of experimental adjuvant arthritis with a novel folate receptor-targeted folic acid-aminopterin conjugate” (Arthritis Research & Therapy, 2011):
# Marks after values point to notes of the source that are not given here.
# Experiments:
# [1] = target: T1, FRα (FRα-expressing KB cells) (Homo sapiens, UniProt P15328); assay: Relative affinity assay: displacement of [3H]FA from KB cells; format: binding; conditions: 37°C, competitor of [3H]FA, inverse molar ratio to displace 50%
# T1 construct: both KB cells and CHO-FRβ cells were used as the sources of FR; endogenous in cells; host or cells: KB cells
# T1 sequence (P15328 25-257): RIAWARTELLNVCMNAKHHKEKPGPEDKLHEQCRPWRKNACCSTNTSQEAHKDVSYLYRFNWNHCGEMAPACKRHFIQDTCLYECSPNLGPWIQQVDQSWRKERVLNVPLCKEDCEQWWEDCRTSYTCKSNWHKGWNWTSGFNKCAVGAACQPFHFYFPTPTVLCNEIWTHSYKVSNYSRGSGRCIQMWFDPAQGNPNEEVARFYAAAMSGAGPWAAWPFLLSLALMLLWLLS
# Procedure: (§1) The relative affinities of EC0746, AMT, and MTX were determined according to a previously established method except that both KB cells and CHO-FRβ cells were used as the sources of FR [33]. KB cells are a human cancer cell line known for elevated expression of FRα. CHO-FRβ cells were obtained from Manohar Ratnam, Department of Biochemistry and Cancer Biology, The University of Toledo (Toledo, OH, USA). This cell line was originally generated by stable integration and amplification of a human FRβ cDNA expression construct in CHO-K1 cells.
# [2] = target: T2, human FRβ (CHO-FRβ cells) (Homo sapiens, UniProt P14207); assay: Relative affinity assay: displacement of [3H]FA from CHO-FRβ cells; format: binding; conditions: 37°C, competitor of [3H]FA, inverse molar ratio to displace 50%
# T2 construct: host or cells: CHO-K1 cells
# T2 sequence (P14207 17-255): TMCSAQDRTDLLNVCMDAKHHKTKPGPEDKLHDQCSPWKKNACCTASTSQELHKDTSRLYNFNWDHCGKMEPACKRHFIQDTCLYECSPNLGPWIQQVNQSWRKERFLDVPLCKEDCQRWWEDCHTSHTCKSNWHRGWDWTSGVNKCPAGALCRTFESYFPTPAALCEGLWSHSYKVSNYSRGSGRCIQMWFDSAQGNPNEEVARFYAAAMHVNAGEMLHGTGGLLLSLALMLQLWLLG
# Procedure: as §1
# [3] = system: RAW264.7 cells; format: cell-based, murine; conditions: RAW264.7 macrophages, data not shown
# Procedure: (§2) RAW264.7 cells in 96-well plates (3.5 × 10^4 cells/well) were treated with 10-fold serial dilutions of EC0746 (≤1 μM) in FFRPMI medium without and with 100-fold molar excess of FA. After a 2-hour exposure, the drug-containing media were replaced and the cells were allowed to incubate further for 70 hours (referred in the text as a 70-hour chase). In comparison, the cells were also treated continuously with AMT for 72 hours. Four hours prior to the end of incubation, LPS was added to the treated cells at a final concentration of 100 ng/ml. Then 100 μl culture supernatants were collected for TNFα analysis by ELISA. The cell viability was assessed by adding XTT to the remaining media for an additional 4 hours following the manufacturer's instructions. To evaluation of a cytostatic effect, RAW264.7 cells seeded at 1 × 10^6 cells/well in six-well plates were subjected to 2-hour exposure and a 70-hour chase with 0, 0.1, 10, and 1000 nM EC0746 without and with excess FA. At the end of the incubation (no LPS added), the surviving cells (that is, still viable cells) were recovered and redistributed in equal numbers in fresh medium for an additional 72 hours. The cell proliferation was again assessed by the XTT assay. All results were expressed as the percentage absorbance (minus background) relative to the untreated control cells.
# [4] = system: TNFα production in RAW264.7 cells; assay: LPS-stimulated TNFα production (ELISA); format: cell-based, murine; conditions: RAW264.7 macrophages, data not shown
# Procedure: as §2
# [5] = system: rat TG-macs; assay: Viability of thioglycollate-elicited peritoneal macrophages; format: cell-based; conditions: 72-hour incubation; no effect at concentrations as high as stated
# Procedure: Female Lewis rats (175 to 200 g) were purchased from Harlan Sprague Dawley (Indianapolis, IN, USA) and were allowed to acclimate for 1 week. To obtain peritoneal macrophages, rats were dosed intraperitoneally with an aged thioglycollate (TG) medium (20 ml/kg) and euthanized 3 days later. The peritoneal cavity of the animals was lavaged with 60 ml ice-cold phosphate-buffered saline to collect peritoneal exudate. The TG-elicited macrophages in the peritoneal fluids were obtained after a red cell lysing step and a 2-hour adherence in folate-free RPMI 1640 medium (Mediatech, Manassas, VA, USA) containing 1% heat-activated fetal calf serum and antibiotics. The purity of the resulting macrophage population (herein referred to as rat TG-macs) was determined to be ~90% pure based on CD11b/c expression (data not shown). […] Unless otherwise specified, all cells were maintained in the folate-free RPMI 1640 medium containing 10% heat-activated fetal calf serum and antibiotics (FFRPMI) under a 5% CO2 atmosphere.
# Unlike RAW264.7 cells, rat TG-macs display little proliferative activity ex vivo and therefore were used in our studies to represent inflammatory macrophages in a low proliferative state. […] LPS (5 μg/ml) and IFNγ (100 ng/ml) were then added to the treated cells 24 hours prior to the end of incubation to stimulate the release of cytokines/chemokines, which were then detected with a rat cytokine antibody array.
# [6] = system: adjuvant-induced arthritis; assay: Rat adjuvant-induced arthritis (AIA) model; format: in vivo
# Procedure: The rats were then inoculated intradermally (at the base of tail) with 0.5 mg heat-killed M. butyricum (BD Diagnostic Systems) in 100 μl light mineral oil (Sigma-Aldrich, St Louis, MO, USA). […] For each study, two or three rats from the same colony were not induced for arthritis and were used as healthy controls.
# Unless noted otherwise, all drug treatments started on day 10 after arthritis induction and lasted for two consecutive weeks with biweekly (BIW, Mondays and Thursdays) or once-weekly (QW, Mondays) dosing regimens.
# EC0746 was given subcutaneously (s.c.) in a dosing range of 25 to 1,000 nmol/kg (QW or BIW); MTX was given s.c. or orally at 250 nmol/kg (BIW) or 1,650 nmol/kg (QW); and etanercept (10 mg/kg) was given s.c. once every 3 days for a 12-day span. The QW MTX dosing regimen was to mimic MTX administration in humans, and this particular dose of 1,650 nmol/kg per week (that is, 0.75 mg/kg per week) was reportedly active as an intraperitoneal agent in the AIA model. To distinguish the anti-inflammatory mechanisms of EC0746 and MTX in vivo, a therapeutically irrelevant folate-containing competitor (EC0923, molecular weight 672) was used in 500-fold molar excess to block the activities of EC0746 and MTX at 250 nmol/kg (BIW).
# Formalin-fixed hind paws were examined by a board-certified veterinary radiologist who had no knowledge of the study groups. Specific criteria were used to establish a numerical grade of severity for each radiographic change: increased soft tissue volume (0 to 4), narrowing or widening of joint spaces (0 to 5), subchondral erosion (0 to 3), periosteal reaction (0 to 4), osteolysis (0 to 4), subluxation (0 to 3), and degenerative joint changes (0 to 3). Scores are limited to the tarsus, and the maximum possible score per foot was 26 [39]. The histopathological analysis was also performed in a blind fashion by an independent contract laboratory (Bolder BioPATH Inc., Boulder, CO, USA). The arthritic ankles were scored on a scale of 0 to 5 for inflammation, bone resorption, pannus formation, and cartilage damage, with a maximal histology score of 20 per foot.
# [7] = Plasma pharmacokinetics after single subcutaneous dose; format: in vivo, rat; conditions: female, Lewis, rat, plasma, sc, after single s.c. dose of unconjugated AMT 500 nmol/kg
# Procedure: Female Lewis rats with jugular vein catheters (Harlan Sprague Dawley) were used to assess the plasma pharmacokinetics of EC0746 and unconjugated AMT. The animals were divided into two main groups, one given a single dose of EC0746 s.c. and the second a single dose of AMT s.c., both at 500 nmol/kg. Whole blood samples (300 μl) were collected from three animals per time point at the following time points: 1 minute, 10 minutes, 30 minutes, 1 hour, 2 hours, 3 hours, 4 hours, and 8 hours after injection. The blood samples were placed into anticoagulant tubes containing 1.7 mg/ml K3EDTA and 0.35 mg/ml N-maleoyl-β-alanine (0.35 mg/ml) in a 0.15% acetic acid solution. Plasma samples were obtained by centrifugation for 3 minutes at ~2,000 × g and stored at -80°C. The amounts of EC0746 and AMT in the plasma and the two primary metabolites of EC0746 (AMT and AMT hydrazide) were determined by liquid chromatography/mass spectrometry/mass spectrometry.
# [8] = Preliminary short-term toxicity / MTD in folate-deficient healthy rats; format: in vivo, rat; conditions: rat, in vivo, sc; healthy rats on folate-deficient diet, four s.c. doses in 2 weeks; read-out: Maximum tolerated dose (MTD)
# Procedure: The short-term toxicity and MTD of EC0746 and AMT were evaluated in healthy rats following the standard BIW subcutaneous dosing regimen used for efficacy studies. Further, these animals were put on a folate-deficient diet for ~20 days before treatment to match the folate deficiency status of AIA rats used for therapy. The folate-deficient but nonarthritic animals were thus given increasing doses of EC0746 and AMT for two consecutive weeks on a BIW basis. […] Standard hematologic and blood chemistry parameters were examined as needed along with histopathology.
# [9] = system: air-pouch inflammation; design: method as in PMID 16170572; conditions: murine air-pouch inflammation; cited from earlier work
# [10] = system: arthritis; design: method as in PMID 16170572; conditions: murine arthritis; cited from earlier work
# [11] = oral exposure, mice; cited from earlier work
# [12] = target: T3, dihydrofolate reductase (DHFR) (Mus musculus, UniProt P00375); assay: Dihydrofolate reductase inhibition assay in RAW264.7 whole cell lysates; format: cell-based, murine; conditions: FA alone 10 μM, 2-hour pulse, 22-hour chase
# T3 construct: endogenous in cells; host or cells: RAW264.7 cells (FR-positive subclone of ATCC TIB71)
# T3 sequence (P00375 1-187): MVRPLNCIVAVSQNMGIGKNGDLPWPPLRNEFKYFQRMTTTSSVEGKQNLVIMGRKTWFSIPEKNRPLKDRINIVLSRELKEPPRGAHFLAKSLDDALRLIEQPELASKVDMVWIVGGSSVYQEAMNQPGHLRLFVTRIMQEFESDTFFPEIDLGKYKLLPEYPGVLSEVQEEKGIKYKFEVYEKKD
# Procedure: RAW264.7 cells growing in FFRPMI medium in 10 cm cell culture dishes (BD Falcon, Lincoln Park, NJ, USA) were treated with EC0746 (100 nM), EC0746 (100 nM) plus 100-fold molar excess of FA (10 μM), or FA alone (10 μM). After a 2-hour exposure, the drug-containing media were replaced and the cells were allowed to incubate further for 22 hours in fresh FFRPMI medium (referred in the text as a 22-hour chase). Meanwhile, AMT and MTX were kept at 100 nM for the entire 24-hour incubation period. All cells were subsequently lysed in the radioimmunoprecipitation assay lysis buffer, and DHFR activities in the whole cell lysates were determined using a commercial DHFR assay kit (Sigma-Aldrich). This spectrophotometric assay monitors the enzymatic conversion of dihydrofolic acid to tetrahydrofolic acid by DHFR and the disappearance of the co-factor nicotinamide adenine dinucleotide phosphate at 340 nm. The results were normalized to the values of the untreated control cells.
# [13] = s.c., 125 μmol/kg biweekly, alone
# [14] = s.c., 10 mg/kg on days 10, 13, 16, 19, 22
compound,measurement,setting,value
"Nc1nc(N)c2nc(CNc3ccc(C(=O)N[C@@H](CCC(=O)O)C(=O)O)cc3)cnc2n1 [AMT, aminopterin]",Relative affinity value (FA = 1),[1],0.004
same,Relative affinity value (FA = 1),[2],0.004
same,"Potency in inhibition of cell proliferation, AMT versus AMT hydrazide",[3],equally potent
same,"Potency in inhibition of LPS-stimulated TNFα production, AMT versus AMT hydrazide",[4],equally potent
same,Concentration affecting TG-macs viability,[5],> 10 µM
same,Tolerability in AIA rats,"[6]; unmodified AMT mixed with FA (1:1), 500 nmol/kg s.c. biweekly, after one or two doses, severe anemia and gastrointestinal distress",all animals treated with the simple mixture had to be euthanized
same,Tmax,"[7]; 500 nmol/kg, read-out: Time to maximum concentration (converted)",~0.5 h
same,AUC,[7]; read-out: Area under the curve (converted),1.02 µM·h
same,half-life,[7]; read-out: Elimination half-life,~2.33 h
same,Cmax,[7]; read-out: Maximum concentration in plasma,601 nM
same,MTD at 2 weeks,[8],0.05 µmol/kg
same,Potency relative to MTX,[9],~ 40 fold
same,Potency relative to MTX,[10],~ 20 fold
same,Acute 50% lethal dose,[11],3 mg/kg
"Nc1nc2ncc(CNc3ccc(C(=O)N[C@@H](CCC(=O)N[C@H](CC(=O)O)C(=O)N[C@H](CC(=O)O)C(=O)O)C(=O)O)cc3)nc2c(=O)[nH]1 [EC0923, pteroyl-γGlu-d-Asp-d-Asp, reference compound]",Impact on development or severity of arthritis,[6]; [13],did not have any impact
same,Radiographic analysis of arthritic paws,[6]; [13],significant joint erosions
"Nc1nc(=O)c2nc(CNc3ccc(C(=O)N[C@@H](CCC(=O)O)C(=O)O)cc3)cnc2[nH]1 [FA, folic acid]",Effect on DHFR activity of cells,[12],benign
Etanercept,Splenomegaly (percentage increase in spleen weight relative to healthy rats),"[6]; s.c., 10 mg/kg every 3 days",42 ± 7%
same,Inhibition in paw edema (%),"[6]; s.c., 10 mg/kg every 3 days, calculated based on arthritis scores on day 24",46 ± 9^f %
same,Body weight change (%),"[6]; s.c., 10 mg/kg every 3 days, day 24 relative to day 10",-15 ± 2%
same,Decrease in summed histology score,[6]; [14],43%
same,Reduction in bone resorption (histology),[6]; [14],55%
same,Reduction in dorsal to ventral paw thickness,[6]; [14],40%
same,Reduction in inflammation (histology),[6]; [14],42%
